Results: ChEMBL document CHEMBL5550210, “Discovery of Novel α,β-Unsaturated Amide Derivatives as Candidate Antifungals to Overcome Fungal Resistance” (J Med Chem, 2024)
In brackets after ≈: the same amount, converted by molar mass. Activity calls are given as the source filed them. The calls are words filed in the database; no cut-off is given here.

Key:
Candida albicans [1] = assay: Antifungal activity against Candida albicans CPCC400616 assessed as inhibition of fungal growth by CLSI protocol based microdilution method; type: functional
Candida albicans [2] = assay: Antifungal activity against Candida albicans SC5314 assessed as inhibition of fungal growth by CLSI protocol based microdilution method; type: functional
Candida parapsilosis = assay: Antifungal activity against Candida parapsilosis ATCC 22019 assessed as inhibition of fungal growth by CLSI protocol based microdilution method; type: functional; details: Lodderomyces parapsilosis
Nakaseomyces glabratus = assay: Antifungal activity against Candida glabrata assessed as inhibition of fungal growth by CLSI protocol based microdilution method; type: functional
Pichia kudriavzevii = assay: Antifungal activity against Candida krusei AS 2.1045 assessed as inhibition of fungal growth by CLSI protocol based microdilution method; type: functional
Candida tropicalis = assay: Antifungal activity against Candida tropicalis CGMCC 2.3739 assessed as inhibition of fungal growth by CLSI protocol based microdilution method; type: functional
Cryptococcus neoformans = assay: Antifungal activity against Cryptococcus neoformans CGMCC2.3161 assessed as inhibition of fungal growth by CLSI protocol based microdilution method; type: functional
Aspergillus fumigatus = assay: Antifungal activity against Aspergillus fumigatus CGMCC 3.7795 assessed as inhibition of fungal growth by CLSI protocol based microdilution method; type: functional
Candida albicans [3] = assay: Antifungal activity against fluconazole-resistant Candida albicans CaR assessed as inhibition of fungal growth by CLSI based microdilution method; type: functional
Candida albicans [4] = assay: Antifungal activity against fluconazole-resistant Candida albicans 17 assessed as inhibition of fungal growth by CLSI based microdilution method; type: functional
Candida albicans [5] = assay: Antifungal activity against fluconazole-resistant Candida albicans 632 assessed as inhibition of fungal growth by CLSI based microdilution method; type: functional
Candida albicans [6] = assay: Antifungal activity against fluconazole-resistant Candida albicans 904 assessed as inhibition of fungal growth by CLSI based microdilution method; type: functional
Candida albicans [7] = assay: Antifungal activity against fluconazole-resistant Candida albicans 901 assessed as inhibition of fungal growth by CLSI based microdilution method; type: functional
[8] = Metabolic stability in mouse liver microsomes assessed as half life; type: ADME, Microsome
[9] = Half life in mouse plasma measured at 180 mins; type: ADME, cell-free
[10] = Stability in mouse plasma assessed as parent compound remaining measured at 180 mins; type: ADME, cell-free; details: read-out: Stability
Candida albicans [11] = assay: Antifungal activity against Candida albicans assessed as inhibition of fungal growth by CLSI protocol based microdilution method; type: functional
Candida albicans [12] = assay: Fungicidal activity against Candida albicans assessed as inhibition of fungal growth measured after 48 hrs by CLSI protocol based microdilution method; type: functional
[13] = molecular target: T1, Lanosterol 14-alpha demethylase (Candida albicans (strain SC5314 / ATCC MYA-2876) (Yeast), UniProt P10613); assay: Inhibition of CYP51 in Candida albicans SC5314 assessed as reduction in ergosterol content at 0.031 ug/ml incubated for 24 hrs by GC-MS analysis relative to control; details: at 0.031 µg/mL
[14] = molecular target: T1, Lanosterol 14-alpha demethylase; assay: Inhibition of CYP51 in Candida albicans SC5314 assessed as increase in obtusifoliol level at 0.031 ug/ml incubated for 24 hrs by GC-MS analysis relative to control; details: at 0.031 µg/mL
[15] = molecular target: T1, Lanosterol 14-alpha demethylase; assay: Inhibition of CYP51 in Candida albicans SC5314 assessed as increase in lanosterol level at 0.031 ug/ml incubated for 24 hrs by GC-MS analysis relative to control; details: at 0.031 µg/mL
[16] = molecular target: T1, Lanosterol 14-alpha demethylase; assay: Inhibition of CYP51 in Candida albicans SC5314 assessed as increase in eburicol level at 0.031 ug/ml incubated for 24 hrs by GC-MS analysis relative to control; details: at 0.031 µg/mL
Candida albicans [17] = assay: Antifungal activity against Candida albicans SC5314 assessed as fungal cell membrane injury at 16 ug/ml incubated for 24 hrs by transmission electron microscopic analysis; type: functional, organism-based; details: dose 16.0 µg/ml
Candida albicans [18] = assay: Antifungal activity against Candida albicans SC5314 assessed as leakage of endogenous substances at 16 ug/ml incubated for 24 hrs by transmission electron microscopic analysis; type: functional, organism-based; details: dose 16.0 µg/ml

T1 sequence (P10613 whole entry): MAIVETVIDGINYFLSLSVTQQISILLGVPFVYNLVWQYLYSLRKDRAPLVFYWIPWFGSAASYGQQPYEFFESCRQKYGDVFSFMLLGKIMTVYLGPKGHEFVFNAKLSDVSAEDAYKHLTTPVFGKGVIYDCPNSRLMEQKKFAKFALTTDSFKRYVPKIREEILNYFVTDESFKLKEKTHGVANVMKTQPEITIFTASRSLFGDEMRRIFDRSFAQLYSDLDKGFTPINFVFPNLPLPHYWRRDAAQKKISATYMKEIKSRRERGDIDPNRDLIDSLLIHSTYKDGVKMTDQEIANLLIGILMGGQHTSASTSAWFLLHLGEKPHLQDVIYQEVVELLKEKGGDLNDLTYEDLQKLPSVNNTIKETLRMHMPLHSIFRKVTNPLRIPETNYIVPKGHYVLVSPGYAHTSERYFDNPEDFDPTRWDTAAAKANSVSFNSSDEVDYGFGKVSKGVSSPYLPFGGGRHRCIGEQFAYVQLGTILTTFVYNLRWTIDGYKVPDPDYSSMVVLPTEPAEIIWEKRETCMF

SMILES	MIC (Candida albicans [1])	MIC (Candida albicans [2])	MIC (Candida parapsilosis)	MIC (Nakaseomyces glabratus)	MIC (Pichia kudriavzevii)	MIC (Candida tropicalis)	MIC (Cryptococcus neoformans)	MIC (Aspergillus fumigatus)	MIC (Candida albicans [3])	MIC (Candida albicans [4])	MIC (Candida albicans [5])	MIC (Candida albicans [6])	MIC (Candida albicans [7])	further results
O=C(/C=C/c1ccc(COC(Cn2ccnc2)c2ccc(Cl)cc2Cl)cc1)Nc1ccccc1 (stereo not drawn)	0.06 µg/mL (≈ 0.122 µM)	0.03 µg/mL (≈ 0.0609 µM)	32 µg/mL (≈ 65 µM)	64 µg/mL (≈ 130 µM)	64 µg/mL (≈ 130 µM)	2 µg/mL (≈ 4.06 µM)	1 µg/mL (≈ 2.03 µM)	1 µg/mL (≈ 2.03 µM)	8 µg/mL (≈ 16.2 µM)	128 µg/mL (≈ 260 µM)	0.25 µg/mL (≈ 0.508 µM)	0.5 µg/mL (≈ 1.02 µM)	1 µg/mL (≈ 2.03 µM)	
CCNC(=O)/C=C/c1ccc(COC(Cn2ccnc2)c2ccc(Cl)cc2Cl)cc1 (stereo not drawn)	0.5 µg/mL (≈ 1.13 µM)	1 µg/mL (≈ 2.25 µM)	8 µg/mL (≈ 18 µM)	16 µg/mL (≈ 36 µM)	32 µg/mL (≈ 72 µM)	4 µg/mL (≈ 9 µM)	8 µg/mL (≈ 18 µM)	8 µg/mL (≈ 18 µM)	128 µg/mL (≈ 288 µM)	128 µg/mL (≈ 288 µM)	2 µg/mL (≈ 4.5 µM)	16 µg/mL (≈ 36 µM)	16 µg/mL (≈ 36 µM)	
OC(Cn1cncn1)(Cn1cncn1)c1ccc(F)cc1F [FLUCONAZOLE]	4 µg/mL (≈ 13.1 µM)	0.5 µg/mL (≈ 1.63 µM)	4 µg/mL (≈ 13.1 µM)	32 µg/mL (≈ 104 µM)	32 µg/mL (≈ 104 µM)	2 µg/mL (≈ 6.53 µM)	4 µg/mL (≈ 13.1 µM)	> 128 µg/mL	> 128 µg/mL	> 128 µg/mL	> 128 µg/mL	> 128 µg/mL	> 128 µg/mL	half-life [8]: > 2 h; half-life [9]: > 6 h; remaining at 3 h [10]: 116%; MIC (Candida albicans [11]): > 128 µg/mL; MFC (Candida albicans [12]): > 128 µg/mL; inhibition (INH) [13]: 48.4%; inhibition (INH) [14]: Active; inhibition (INH) [15]: Active; inhibition (INH) [16]: Active; Activity (Candida albicans [17]): Active; Activity (Candida albicans [18]): Active
O=C(/C=C/c1ccc(COC(Cn2ccnc2)c2ccc(Cl)cc2Cl)cc1)Nc1ccc(Br)cc1 (stereo not drawn)	0.06 µg/mL (≈ 0.105 µM)	0.03 µg/mL (≈ 0.0525 µM)	0.25 µg/mL (≈ 0.438 µM)	8 µg/mL (≈ 14 µM)	16 µg/mL (≈ 28 µM)	32 µg/mL (≈ 56 µM)	4 µg/mL (≈ 7 µM)	16 µg/mL (≈ 28 µM)	16 µg/mL (≈ 28 µM)	32 µg/mL (≈ 56 µM)	4 µg/mL (≈ 7 µM)	4 µg/mL (≈ 7 µM)	8 µg/mL (≈ 14 µM)	
